The series is described as follows: Compound solubility determination in FaSSIF and FeSSIF. The note with it: thermodynamic from solid. Type of series: physicochemical. The procedure: Compound Solubility Determination
An amount of 3 mg solid compound with LC-MS purity ≧95% was required. This amount was split between 3 different glass vials (1.8 ml volume each), placing 1 mg compound into each one.
Organic solvents of HPLC grade were used. Ultra pure water (Milli-Q grade) was used. Buffers were prepared with ultra pure water and filtered using 0.45μ nylon filters. The compositions of each solvent employed in this assay are described below (part III).
2. Determination of Equilibrium Solubility (Assuming Chemical Stability in the Desired Solvent is Not a Problem).
For each of the three vial samples prepared as described above, in which the amount of compound was totally dissolved, the following procedure was subsequently carried out: • a) A small amount (approx. 0.1 mg) of additional solid compound was added to the vial to maintain an excess of the compound in the mixture in the form of undissolved solid. • b) The samples were magnetically stirred for 24 hr. If required, additional solid compound (0.1 mg) was added to maintain excess of it and then the samples were stirred again. • c) Then the samples were filtered (Millipore Milex filters nylon 0.2 um) and three aliquots were taken (one from each of the three vials) and analysed by LC-MS. • d) The pH of the final solution in each sample was measured with a pH-meter (WTW pH330i and a pH-electrode Sentix 41). 3. LC-MS Assay for Analytical Quantification
All filtered aliquots were analysed by LC-MS. The analysis was carried out with a Luna 5 μC18(2) column 4.6×150 mm, using a HP1100HPLC instrument interfaced with a Waters ZMD-2000 MS spectrometer. The concentration of the final sample as prepared above was calculated from that of a reference calibration curve obtained from serial dilutions of a 2 mM solution of the compound under investigation in DMSO (Aldrich cat. ref.: 27685-5) stock solution.
The analysis of all LC-MS data was performed with MassLynx 3.4 software. Statistical and graphic analysis of data was performed using Microsoft Excel. The concentration (μM) and solubility (μg/ml) for each compound was calculated using the peak areas from the sample and those from the calibration curve.
• A) FaSSIF is a solvent which simulates the Fasted State of the Intestinal Fluid. (FaSSIF: Fasted State Simulated Intestinal Fluid).
FaSSIF Preparation Procedure. 1. Preparation of 1 L of pH 6.8 Buffer Solution • 1.a. 3.947 g potassium phosphate and 16.401 g potassium chloride were dissolved in approx. 900 ml of water. • 1.b. The pH was adjusted to 6.8 by slow addition of 0.1 N sodium hydroxide (Scharlau SO 0441010C) under magnetic stirring. • 1.c The mixture was diluted to a volume of 1000 ml with water. 2. Preparation of 100 ml of FaSSIF • 2.a. 269 mg NaTaurochol. (Aldrich T-4009) was dissolved in approx. 80 ml of pH 6.8 buffer. • 2.b. 114 mg lecithin (Sigma P-7318) was dissolved in this NaTaurochol/buffer solution (this was carried out with a nitrogen filled glove bag). • 2.c. The resulting mixture was diluted to a volume of 100 ml with further pH 6.8 buffer • 2.d. The final solution was covered with a layer of nitrogen or alternative inert gas. The bottle was sealed with parafilm and stored at 4° C. • B) FeSSIF is a solvent which simulates the Fed State of the Intestinal Fluid. (FeSSIF: Fed State Simulated Intestinal Fluid).
FeSSIF Preparation Procedure. 1. Prepare 1 L of pH 5 Buffer Solution • 1.a. 15.2 g potassium chloride and 8.25 ml glacial acetic acid were dissolved in approx. 900 ml of water. • 1.b. The pH was adjusted to 5 by slow addition of NaOH 0.1N (Scharlau SO 0441010C) under magnetic stirring. • 1.c The mixture was diluted to a volume of 1000 ml with water. 2. Preparation of 100 mL of FeSSIF • 2.a. 806.5 mg NaTaurochol (Aldrich T-4009) was dissolved in 80 ml of pH 5 buffer. • 2.b. 288 mg lecithin (Sigma P-7318) was dissolved in this NaTaurochol/buffer solution (carried out with a nitrogen filled glove bag). • 2.c. […]

Where [1] appears, read: FaSSIF (Fasted State Simulated Intestinal Fluid), pH 6.8 buffer, read-out: Solubility in FaSSIF.
Where [2] appears, read: FeSSIF (Fed State Simulated Intestinal Fluid), pH 5.0 buffer, read-out: Solubility in FeSSIF.

Each structure is given as a SMILES string. Values after ≈ are worked out from the molar mass of the structure shown. Read-outs that look alike come from different tables or passages of the source.

Consider `Cc1[nH]c(/C=N/O)c(-c2ccc(Oc3ccc(OC(F)(F)F)cc3)cc2)c(=O)c1Cl` [Example 5, 5-Chloro-6-methyl-4-oxo-3-[4-({4-[(trifluoromethyl)oxy]phenyl}oxy)phenyl]-1,4-dihydro-2-pyridinecarbaldehyde oxime], for which the solubility – broadly, how much of the substance goes into solution per volume – at 24 h reads like this: under setting [1], 5 to 10 µg/mL (≈ 11.4 to 22.8 µM); under setting [2], 10 to 50 µg/mL (≈ 22.8 to 114 µM).

`Cc1[nH]c(CO)c(Cl)c(=O)c1-c1ccc(Oc2cccc(C(F)(F)F)c2)cc1` [Example 4, 3-chloro-2-(hydroxymethyl)-6-methyl-5-(4-{[3-(trifluoromethyl)phenyl]oxy}phenyl)-4(1H)-pyridinone]: the solubility at 24 h by setting is: under setting [1], 1 to 5 µg/mL (≈ 2.44 to 12.2 µM); under setting [2], 10 to 50 µg/mL (≈ 24.4 to 122 µM).

For the compound `Cc1[nH]c(CO)c(Cl)c(=O)c1-c1ccc(Oc2ccc(OC(F)(F)F)cc2)cc1` [Example 3, 3-chloro-2-(hydroxymethyl)-6-methyl-5-[4-({4-[(trifluoromethyl)oxy]phenyl}oxy)phenyl]-4(1H)-pyridinone], the solubility at 24 h under setting [1] was 5 to 10 µg/mL (≈ 11.7 to 23.5 µM) and the solubility at 24 h under setting [2] is 10 to 50 µg/mL (≈ 23.5 to 117 µM).

As to `CON=Cc1[nH]c(C)c(Cl)c(=O)c1-c1ccc(Oc2ccc(OC(F)(F)F)cc2)cc1` (single isomer, unassigned) [Example 6, 5-Chloro-6-methyl-4-oxo-3-[4-({4-[(trifluoromethyl)oxy]phenyl}oxy)phenyl]-1,4-dihydro-2-pyridinecarbaldehyde-O-methyloxime], the solubility at 24 h under setting [1] is 5 to 10 µg/mL (≈ 11 to 22.1 µM) and the solubility at 24 h under setting [2] was 10 to 50 µg/mL (≈ 22.1 to 110 µM).

Turning to `Cc1[nH]c(CO)c(-c2ccc(Oc3ccc(OC(F)(F)F)cc3)cc2)c(=O)c1Cl` [Example 1, 3-Chloro-6-(hydroxymethyl)-2-methyl-5-[4-({4-[(trifluoromethyl)oxy]phenyl}oxy)phenyl]-4(1H)-pyridinone], the solubility at 24 h by setting is: under setting [1], 1 to 5 µg/mL (≈ 2.35 to 11.7 µM); under setting [2], 5 to 10 µg/mL (≈ 11.7 to 23.5 µM).

Consider `Cc1[nH]c(CO)c(-c2ccc(Oc3cccc(C(F)(F)F)c3)cc2)c(=O)c1Cl` [Example 2], for which the solubility at 24 h was 1 to 5 µg/mL (≈ 2.44 to 12.2 µM) under setting [1] and 1 to 5 µg/mL (≈ 2.44 to 12.2 µM) under setting [2].

Consider `Cc1[nH]c(C=NO)c(Cl)c(=O)c1-c1ccc(Oc2ccc(OC(F)(F)F)cc2)cc1` (single isomer, unassigned) [Example 7, 3-chloro-6-methyl-4-oxo-5-[4-({4-[(trifluoromethyl)oxy]phenyl}oxy)phenyl]-1,4-dihydro-2-pyridinecarbaldehyde oxime], for which the solubility at 24 h reads like this: under setting [1], 1 to 5 µg/mL (≈ 2.28 to 11.4 µM); under setting [2], 5 to 10 µg/mL (≈ 11.4 to 22.8 µM).

`Cc1[nH]c(CCCO)c(-c2ccc(Oc3ccc(OC(F)(F)F)cc3)cc2)c(=O)c1Cl` [Example 8, 3-chloro-6-(3-hydroxypropyl)-2-methyl-5-[4-({4-[(trifluoromethyl)oxy]phenyl}oxy)phenyl]-4(1H)-pyridinone]: the solubility at 24 h is 10 to 50 µg/mL (≈ 22 to 110 µM) under setting [1] and 10 to 50 µg/mL (≈ 22 to 110 µM) under setting [2].
